Laboratory results taken from US20060169172A1, “Disazo compound and ink composition containing the same” (priority 2003, published 2006).

Tests used:
Type in all cases: physicochemical
[1] = Moisture fastness test (bleeding, visual inspection); set-up: key: ◯: No bleeding is observed.; Δ: Bleeding is a little observed.; X: Bleeding is seriously observed; conditions: 50° C., 90% RH, 150 hours
Protocol: (§1) The solution of the composition shown in Table 2 below, containing the disazo compound (a dyestuff component) obtained in Example 1 or 2 was prepared and filtered with a 0.45 μm membrane filter to obtain each water-based yellow ink composition for ink-jet printing. Ion-exchange water was used. Water and ammonium hydroxide were added so that the pH of the ink composition is 8 to 10 and the total amount is 100 parts.
(§2) Ink-jet recording is carried out on four kinds of recording materials of plain paper, Professional photo paper (PR-101 (made by Canon Inc.)), Photo glossy film (HG-201 (made by Canon Inc.)) and Paper for PM photo (made by SEIKO EPSON CORP.), using an ink-jet printer (Trade name: BJ S-630 from Canon Inc.) (hereinafter, described as follows, PR: Professional photo paper, HG: Photo glossy film, PM: Paper for PM photo).
(§3) A sample piece having a recorded image printed on the sample piece was left for standing at 24° C., 12 ppm and 60% RH for 2 hours using an ozone weather meter (Model OMS-H made by Suga Test Instruments Co., Ltd.). Densities (D values) before and after the test were measured. (4) A sample piece having a recorded image printed on the sample piece for a moisture fastness test was left for standing at 50° C. and 90% RH for 150 hours in a thermo-hygrostat (made by Ouyou giken sangyou Corp.). Bleeding degrees before and after the test was evaluated by visual inspection.
◯: No bleeding is observed.
Δ: Bleeding is a little observed.
X: Bleeding is seriously observed.
(§4) The results of evaluation of the ink composition prepared using the compound obtained in Example 1 are referred to Evaluation Example 1, and similarly the results of evaluation of the ink composition prepared using the compound obtained in Example 2 are referred to Evaluation Example 2. The compound represented by the following formula (6) and the compound represented by the following formula (7) were used as Comparative Example 1 and Comparative Example 2 and those were evaluated at the same optical density as those of Evaluation Examples 1 and 2 in the composition shown in Table 2.

[2] = Test for ozone fastness (ozone weather meter); conditions: 24° C., 12 ppm, 60% RH, 2 hours
Protocol: as §1, §2, §3, §4

[3] = Test for light fastness (xenon weather meter); conditions: 24° C., 60% RH, 50 hours
Protocol: as §1, §2
The recorded image was irradiated at 24° C. and 60% RH for 50 hours using a xenon weather meter (made by Atlas Corp.). Densities (D values) of the images before and after the irradiation were measured by means of the above calorimetric system.
Residual ratio (%)=D value after irradiation/D value before irradiation
as §4

Moisture Fastness ([1]; HG (Photo glossy film))	Moisture Fastness ([1]; PM (Paper for PM photo))	Moisture Fastness ([1]; PR (Professional photo paper))	Moisture Fastness ([1]; Plain Paper)	Ozone Fastness (residual ratio) ([2]; HG (Photo glossy film))	Ozone Fastness (residual ratio) ([2]; PM (Paper for PM photo))	Ozone Fastness (residual ratio) ([2]; PR (Professional photo paper))	Ozone Fastness (residual ratio) ([2]; Plain Paper)	Light Fastness (residual ratio) ([3]; HG (Photo glossy film))	Light Fastness (residual ratio) ([3]; PM (Paper for PM photo))	Light Fastness (residual ratio) ([3]; PR (Professional photo paper))	Light Fastness (residual ratio) ([3]; Plain Paper)	SMILES
Δ	X	◯	◯	74%	97%	82%	98%	63%	94%	82%	81%	COc1cc(N=Nc2cccc(S(=O)(=O)[O-])c2)ccc1NC(=O)Nc1ccc(N=Nc2cccc(S(=O)(=O)[O-])c2)cc1OC.[Na+].[Na+] [Comparative Example 2]
◯-Δ	◯-Δ	◯	◯	91%	97%	89%	99%	67%	86%	80%	78%	COc1cc(N=Nc2cccc(S(=O)(=O)[O-])c2)ccc1Nc1nc(Nc2ccc(N=Nc3cccc(S(=O)(=O)[O-])c3)cc2OC)nc(N(CCO)CCO)n1.[Na+].[Na+] [Comparative Example 1]
